This is an account of results in patent US9284297B2, “Halofuginone analogs for inhibition of tRNA synthetases and uses thereof” (President and Fellows of Harvard College, priority 2008, dated 2016).

Test [1] deals with translation of luciferase RNA in rabbit reticulocyte lysate. Briefly: Translation of a luciferase RNA reporter in rabbit reticulocyte lysate. Type of test: biochemical. More on the design: key to Translational inhibition: “+++” vs. “++” vs. “+” in general denotes ˜4-fold differences in potency; “+++” vs. “++” vs. “+” in general denotes ˜4-fold differences in potency; “+++” vs. “++” vs. “+” in general denotes ˜4-fold differences in potency; “−” denotes no activity at any dose tested, up to 1000× the effective dose of halofuginone. On the procedure:
To distinguish these possibilities, the effect of halofuginone on protein translation was examined in an in vitro system (rabbit reticulocyte lysate) in which amino acids are already present at levels adequate to support protein synthesis. […] Distinct tRNA synthetases catalyze the charging of individual tRNA species with their cognate amino acid. To determine which tRNA synthetase is inhibited by halofuginone, several amino acid mixtures were added to the in vitro translation system to determine which, if any, could reverse the inhibition of translation by halofuginone (FIG. 3). […] To examine whether proline could specifically rescue the effect of halofuginone in intact cells, the ability of each amino acid to reverse the effect of halofuginone on eIF2alpha phosphorylation in T-cells or to prevent halofuginone inhibition of Th17 differentiation was tested (FIG. 4). […] Inhibition of EPRS with compounds of the current invention can inhibit Th17 differentiation.
Translation in vitro was performed using rabbit reticulocyte lysates and luciferase mRNA as template. Translation was measured as arbitrary units of luciferase activity using a luminometer based luminescence assay. Log scale presentation of background-subtracted data is shown.
Inhibition of translation of luciferase RNA by halofuginone and analogs thereof was measured as described in FIG. 3 above. Results are shown of translation of a luciferase RNA reporter in a rabbit reticulocyte lysate. “+++” vs. “++” vs. “+” in general denotes ˜4-fold differences in potency. “−” denotes no activity at any dose tested, up to 1000× the effective dose of halofuginone.

Test [2] concerns SV-MES mesangial cells (GCN2 Thr898, eIF2alpha Ser51 phosphorylation). Briefly: AAR activation in cultured fibroblastic cells, western blot. The settings on record: 20 nM; 2 hours. Type of test: cell-based. From the text:
Duplicate cell samples are shown. […] Activated GCN2 phosphorylates eif2alpha at Ser 51, therefore this is an expected downstream outcome of AAR activation.
For orientation: A western blot detects proteins with antibodies after separation by electrophoresis.

The next test has as its system STAT3 phosphorylation. As to the kind of experiment: Kinetics of STAT3 phosphorylation in developing Th17 cells. Type of test: cell-based, murine. The settings on record: TGFβ plus IL-6; 5 nM or 10 nM HF. On the procedure: FIG. 6. […] FIG. 6A is a set of representative histograms displaying the kinetics of STAT3 phosphorylation in developing Th17 cells treated with or without halofuginone. Resting naïve T cells (grey, shaded peak), T cells activated in the presence of TGFβ plus IL-6 (TGFβ/IL-6) treated with 10 nM MAZ1310 (light gray trace), 5 nM HF (medium gray trace), or 10 nM HF (dark gray trace). T cells were fixed at the indicated times and intracellular phospho-STAT3 staining was performed.
Th17 differentiation is synergistically regulated by TGFβ and the pro-inflammatory cytokines IL-6 and IL-21. […] Since STAT3 is the major transducer of IL-6 and IL-21 signaling, the kinetics of STAT3 phosphorylation in HF-treated T cells were examined.

The subject of a further test is passive EAE. Briefly: Passive EAE, transfer of PLP-reactive T cells. Type of test: in vivo, mice. The settings on record: 2 μg HF daily i.p. From the text:
The ability of systemic HF treatment to block IL-17 expression and associated autoimmune inflammation in vivo was examined using two distinct models of experimental autoimmune encephalomyelitis (EAE). […] The second model, a passive model of EAE induction, is initiated by the transfer of myelin proteolipid protein (PLP)-reactive T cells into lymphopenic hosts.
Passive EAE was induced by intravenous transfer of purified CD3^+ splenic T cells isolated from PLP TCR transgenic B10.S mice into syngeneic RAG2-deficient mice (3×10^6 cells/mouse) (Waldner et al., J. Clin. Invest. 113(7):990-997, 2004).
Mice were injected daily with HF (2 μg/mouse) or vehicle control (DMSO) i.p. Clinical signs of EAE were assessed according to the following score: 0, no signs of disease; 1, flaccid tail; 2, weak gait/hind limb paresis; 3, hind limb paralysis; 4, tetraplegia; 5, moribund. Cytokine production during EAE was determined either in peripheral T cells isolated from spleen or lymph nodes of mice prior to disease onset (day 6-10) or in mononuclear cells isolated from the brain and spinal cords of mice with severe disease (clinical score ≧2) between days 15-20. Briefly, splenocytes were stained for intracellular cytokines following erythrocyte lysis with ammonium chloride buffer. T cells were isolated from brain and spinal cords of mice with active EAE following perfusion with cold PBS. […]

The subject of test [3] is eIF2α phosphorylation and AAR-associated transcripts (Asns, Gpt2, eIF4Ebp1) in splenocytes. Briefly: AAR activation in splenocytes of HF-injected mice. Type of test: in vivo. As to conditions: i.p. 2.5 mg HF; spleens harvested 6 hours post injection. Here is the method: FIG. 18F, left panel, depicts western blot analysis of protein from cells of wild-type mice injected i.p. with vehicle (DMSO) or 2.5 mg HF. Spleens were harvested 6 hours post injection, red blood cells were removed by NH4Cl lysis buffer and immunoblotting for phosphorylated or total eIF2a was performed on whole cell extracts. FIG. 20F, right panel is a graph depicting levels of AAR-associated gene expression (Asns, Gpt2, eIF4Ebp1) analyzed by quantitative real-time PCR using cDNA from splenocytes of mice treated with DMSO or HF as above. Expression of AAR-associated transcripts were normalized to Hprt levels and data are presented as mean relative expression from duplicate samples±SD. All data represent 2-3 similar experiments.
HF-mediated protection from adjuvant-driven EAE was accompanied by a reduction in T cell-derived IL-17-expression, both in peripheral lymph nodes prior to disease onset and in CNS tissue during active disease (FIG. 18E), as well as an overall reduction in CD4^+ T cell infiltrates into the CNS (FIG. 19).

Another test concerns dermal ECM deposition. The settings on record: introduced intraperitoneally, added to food, or applied locally; cited from earlier work.

Turning to `O=C(CC1NCCCC1O)Cn1cnc2cc(Br)c(Cl)cc2c1=O` (centres unmarked) [Compound 1, 7-bromo-6-chloro-3-[3-(3-hydroxy-2-piperidinyl)-2-oxopropyl]-4(3H)-quinazolinone], the “inhibition of translation of luciferase” value in test [1] (400 nM) is 5-6 orders of magnitude. Further, the “rescue of translation inhibition by added amino acids” value in test [1] (400 nM halofuginone, 1-2 mM amino acids) is “Addition of proline, either alone or in combination with phenylaline and serine, rescues inhibition of translation”. For the same molecule, in test [1] (luciferase RNA reporter), the Translational inhibition result is on record as “+++”. Also, in test [2], the “AAR activation (GCN2 Thr898 and eIF2alpha Ser51 phosphorylation)” value is “activates the AAR”. Further, the STAT3 phosphorylation result with STAT3 phosphorylation is “decreased the maintenance of STAT3 phosphorylation, beginning around 12 hours post activation”. In addition, the “EAE disease symptoms, passive model” value in the test on passive EAE was “developed disease symptoms with kinetics and severity similar to control treated animals”. For the same molecule, the “eIF2α phosphorylation and AAR-associated transcripts in splenocytes ex vivo” value in test [3] was “increased eIF2α phosphorylation and expression of AAR-associated transcripts”. Moreover, the “dermal ECM deposition” value in the test with dermal ECM deposition is on record as “reduces excess dermal ECM deposition”.
